How the values were obtained:
MPTP-treated mice [1] = assay: MPTP-induced loss of nigral TH-IR with CB1 agonist/antagonist and HM; format: in vivo; details: combined with HM 20 mg/kg i.p.
Procedure: CB1 agonist or antagonist was administered 45 min before every MPTP, while HM was injected 30 min before every MPTP (20 mg/kg, i.p./day×7). Compounds were administered for 7 days post-final MPTP.

LPS-treated mice [2] = assay: LPS-induced mortality with CB1 agonist/antagonist and HM; format: in vivo
LPS-treated mice [3] = assay: LPS-induced loss of nigral TH-IR with CB1 agonist/antagonist and HM; format: in vivo
Procedure: Mortality was observed by 2 weeks after bilateral LPS intrastriatal injection (one side: 2 μg×2).

cocaine-treated mice [4] = assay: Cocaine-induced conditioned place preference with CB1 modulation
Procedure: (§1) The control mice received an i.p. injection of saline just before entering the white or black compartment. Cocaine or MA dissolved in saline was administered immediately before the mice were placed in the white compartment. To test the effect of cocaine alone or MA alone or in combination with exemplified morphinans (DM, HM, AM, CM or DF), each morphinan was administered 2 hr before cocaine or saline injection.
(§2) On day 1, the mice were pre-exposed to the test apparatus for 5 min. The guillotine doors were raised and the mice were allowed to move freely between the two compartments. On day 2, the time each mouse spent in each compartment was recorded for 15 min. On days 3, 5, 7, 9, 11, and 13, the mice were injected with cocaine before being confined to the white compartment, the non-preferred side, for 20 min. On days 4, 6, 8, 10, and 12, the mice were injected with saline before being confined to the black compartment, the preferred side, for 20 min. On day 14, the guillotine doors were raised. The mice were initially placed in the tunnel and the time spent by the mice in the two compartments was recorded for 15 min. The scores were calculated from the differences in the time spent in the white compartment in the testing and pre-testing phases.

cocaine-treated mice [5] = assay: Cocaine-induced behavioural sensitization with CB1 modulation
MA-treated mice [6] = assay: MA-induced behavioural sensitization
Procedure: Morphinans (20 mg/kg, i.p.) were administered last 3 days of wash-out period.

MA-treated mice [7] = assay: MA-induced conditioned place preference with CB1 modulation
Procedure: as §1, §2

MA-treated mice [8] = assay: MA-induced loss of nigral TH-IR with CB1 agonist/antagonist and HM
Procedure: Compounds were administered 3 days before and after MA injection.

MPTP-treated mice [9] = assay: MPTP model, HM versus L-dopa/carbidopa: locomotor activity; format: in vivo; details: HM 24 mg/kg i.p., L-dopa 200 mg/kg p.o., carbidopa 20 mg/kg p.o., 2 weeks before MPTP
Procedure: FIGS. 20A-20B show effects of carbidopa, L-dopa, carbidopa+L-dopa and HM on the changes in locomotor activity (A) and locomotor pattern (B) induced by MPTP in mice.
A prescription drug for treating Parkinsonian patients is L-dopa or carbidopa plus L-dopa. Thus, the neuroprotective effects of HM was compared with L-dopa, carbidopa, or carbidopa plus L-dopa. […] Locomotor activity was examined for 60 min after final treatment of MPTP. Mice were sacrificed at 24 h after final MPTP administration. HM (24 mg/kg, i.p.), L-dopa (200 mg/kg, p.o.) with or without carbidopa (20 mg/kg, p.o.) was administered for 2 weeks before first MPTP challenge.

LPS-treated mice [10] = assay: LPS model, HM versus L-dopa/carbidopa: mortality; format: in vivo; details: intrastriatal LPS 2 μg x 4/head; 2 weeks
Procedure: Mortality was observed by 2 weeks after LPS injection. *P<0.01 vs. Saline+LPS (x^2-test).
The neuroprotective effect of HM was compared with L-dopa, carbidopa, or carbidopa plus L-dopa in response to dopaminergic damage induced by LPS. Intrastriatal injection of LPS (2 μg×4/head) produced high mortality (ten animals died out of twelve animals in the 2 weeks after LPS administration).

LPS-treated mice [11] = assay: LPS model, HM versus L-dopa/carbidopa: locomotor activity; format: in vivo; details: 3 weeks after LPS
Procedure: Locomotor activity was examined for 60 min at 3 weeks after LPS treatment. LPS-induced significant reduction (P<0.01 vs. saline treatment) in locomotor activity was attenuated by L-dopa (P<0.05), carbidopa+L-dopa (P<0.05) or HM (P<0.01) (FIGS. 24 and 25).

LPS-treated mice [12] = assay: LPS model, HM versus L-dopa/carbidopa: nigral TH-IR; details: mouse, in vivo
Text: FIG. 27 show effects of carbidopa, L-dopa, carbidopa+L-dopa and HM on the nigral tyrosine hydroxylase-like immunoreactivity (TH-IR) of the mice treated with LPS.

LPS-treated mice [13] = assay: LPS model, HM versus L-dopa/carbidopa: microglia F4/80-like immunoreactivity; format: in vivo; details: substantia nigra
MA-treated mice [14] = assay: MA model, HM versus L-dopa/carbidopa: hyperthermia; format: in vivo; details: MA 7.5 mg/kg i.p. x 4
Procedure: FIGS. 31A-31B show effect of drugs on the MA-induced hyperthermia. Mice received MA injections as 2 hrs' time interval under the ambient temperature of 22.0±0.5° C.
Experimental paradigm for MA with or without compounds is in FIG. 30. Treatment with MA (7.5 mg/kg, i.p.×four times as two hour time interval) produces hyperthermia (P<0.01).

MA-treated mice [15] = assay: MA model, HM versus L-dopa/carbidopa: locomotor activity; format: in vivo; details: 3 days after MA

Structure (SMILES): CCCCC/C=C\C/C=C\C/C=C\C/C=C\CCCC(=O)NCCCl [ACEA, arachidonyl-2-chloroethylamide]
- effect on MPTP-induced loss in TH-IR when combined with HM / on HM's action (MPTP-treated mice [1]): counteracted HM's neuroprotective action
- effect on HM-induced protective (anti-mortal) effect (LPS-treated mice [2]; combined with HM 20 mg/kg): reversed HM-induced protective (anti-mortal) effect
- effect on LPS-induced mortality (LPS-treated mice [2]; given alone: HM 20, ACEA 2, AM-251 0.3 mg/kg, 2 weeks after bilateral intrastriatal LPS): Neither AM-251 nor ACEA significantly changed LPS-induced mortality
- effect on LPS-induced loss in TH-IR when combined with HM / on HM's effect (LPS-treated mice [3]; combined with HM): counteracted HM's protective effect
- effect on LPS-induced reduction in nigral TH-IR (LPS-treated mice [3]; given alone): did not alter LPS-induced reduction in TH-IR
- CPP response of the compound itself (cocaine-treated mice [4]; AM 251 0.3, HM 20, ACEA 2 mg/kg, no cocaine): showed CPP effects
- effect on cocaine-induced CPP (cocaine-treated mice [4]; cocaine 10 mg/kg): did not alter CPP effects by cocaine
- effect on HM's effect in response to cocaine-induced CPP (cocaine-treated mice [4]; combined with HM 20 mg/kg): appears to counteract the cocaine-induced CPP
- behavioural effects of the compound itself (cocaine-treated mice [5]; AM 251 0.3, ACEA 2, HM 20 mg/kg, no cocaine): Neither saline-, AM 251 (0.3 mg/kg)-, ACEA (2 mg/kg)-treated nor HM (20 mg/kg)-treated animals showed any specific behavioural effects
- effect on cocaine-induced behavioural sensitization (cocaine-treated mice [5]; cocaine 10 mg/kg/day i.p. x 7, challenge one month later): Neither ACEA nor AM 251 alter behavioural sensitization by cocaine
- effect on HM's effect in response to cocaine-induced sensitization (cocaine-treated mice [5]; combined with HM): Neither ACEA nor AM 251 significantly alter HM's effect
- behavioural effects of the compound itself (MA-treated mice [6]; AM 251 0.3, ACEA 2, HM 20 mg/kg, no MA (Ex. 3.14)): Neither saline-, AM 251 (0.3 mg/kg)-, ACEA (2 mg/kg)-treated nor HM (20 mg/kg)-treated animals showed any behavioural effects
- effect on MA-induced behavioural sensitization (CB1 modulation study) (MA-treated mice [6]; MA 1 mg/kg i.p./day x 7, challenge one week later (Ex. 3.14)): Neither ACEA nor AM 251 influenced behavioural sensitization by cocaine
- effect on HM's effect on MA-induced sensitization (MA-treated mice [6]; combined with HM): significantly reversed HM's effect
- CPP response of the compound itself (MA-treated mice [7]; AM 251 0.3, HM 20, ACEA 2 mg/kg i.p., no MA): showed CPP effects
- effect on HM's effect in response to MA-induced CPP (MA-treated mice [7]; combined with HM): significantly counteracted
- effect on MA-induced CPP (MA-treated mice [7]; mouse, in vivo): did not alter CPP effects by MA
- effect on MA-induced reduction in TH-IR when combined with HM / on HM's effect (MA-treated mice [8]; combined with HM 20 mg/kg): reversed HM's protective effect
- effect on MA-induced reduction in nigral TH-IR (MA-treated mice [8]; given alone): did not alter MA-induced reduction in TH-IR

Structure (SMILES): N[C@@H](Cc1ccc(O)c(O)c1)C(=O)O [L-dopa]
- effect on MPTP-induced decrease in locomotor activity (MPTP-treated mice [9]): appeared to increase
- effect on mortality induced by LPS (LPS-treated mice [10]): appears to attenuate mortality induced by LPS
- effect on LPS-induced reduction in locomotor activity (LPS-treated mice [11]): attenuated
- effect on LPS-induced loss in nigral TH-IR (LPS-treated mice [12]): significantly attenuated
- effect on LPS-induced increase in F4/80-like immunoreactivity (microglia) (LPS-treated mice [13]): significantly attenuated
- effect on MA-induced hyperthermia (MA-treated mice [14]): significantly attenenuated
- effect on MA-induced reduction in locomotor activity (MA-treated mice [15]): significantly enhanced
